Tests used:
[1] = tested on: pY705-STAT3 in Peripheral Blood Mononuclear Cells (PBMC); test: MSD-pSTAT-PBMC Assay (pSTAT3, IL-6 stimulated); format: cell-based, Human; details: compound 3 hrs, then 10 ng/mL IL-6 for 10 min
In short: (§1)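 Phospho-STAT readout used MSD electrochemiluminescence with total STAT3 or STAT6 capture in lysates of cryopreserved human PBMCs. Cells had 3 h compound exposure before a 10 min cytokine pulse: IL-6 10 ng/mL for pSTAT3, IL-4 1 ng/mL for pSTAT6. IC50 came from background-subtracted, DMSO-normalised signal, with categories A≤100 nM up to D>3 μM.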

[2] = tested on: pY641-STAT6 in Peripheral Blood Mononuclear Cells (PBMC); test: MSD-pSTAT-PBMC Assay (pSTAT6, IL-4 stimulated); format: cell-based, Human; details: compound 3 hrs, then 1 ng/mL IL-4 for 10 min
In short: as §1

Row | SMILES | IC50 ([1]; Homo sapiens) [nM] | IC50 ([2]; Homo sapiens) [nM] | IC50 [2] [nM] | IC50 [1] [nM]
1 | CCCOC(=O)OC(C)OP(=O)(OC(C)OC(=O)OCCC)C(F)(F)c1ccc2sc(C(=O)N[C@H]3CN(C(C)=O)CC[C@H]4CC[C@@H](C(=O)N(C)c5ccccc5)N4C3=O)cc2c1 (stereo partly drawn) [Compound 293, ((((2-(((5S,8S, 10aR)-3-acetyl-8-(methyl (phenyl)carbamoyl)-6-oxodecahydro-pyrrolo[1,2-a][1,5]diazocin-5-yl)carbamoyl)benzo[b]thiophen-5-yl)difluoro-methyl)phos-phoryl)bis(oxy)) bis(ethane-1,1-diyl) dipropyl bis(carbonate)] | > 3000 | > 3000 | – | –
2 | CC(C)(C)C(=O)OCOP(=O)(OCOC(=O)C(C)(C)C)C(F)(F)c1ccc2sc(C(=O)N[C@H]3CN(CC(F)F)CC[C@H]4CC[C@@H](C(=O)N5CC(C(=O)N6CCOCC6)C5)N4C3=O)cc2c1 [Compound 350, ((((2-(((5S,8S,10aR)-3-(2,2-difluoroethyl)-8-(3-(morpholine-4-carbonyl)azetidine-1-carbonyl)-6-oxodecahydropyrrolo[1,2-a][1,5]diazocin-5-yl)carbamoyl)benzo[b]thiophen-5-yl)difluoromethyl)phosphoryl)bis (oxy))bis(methylene) bis(2,2-dimethylpropanoate)] | ≤ 100 | – | 100 to 1000 | –
3 | CC(=O)N1CC[C@H]2CC[C@@H](C(=O)N3C[C@H](O)[C@@H](n4ccnn4)C3)N2C(=O)[C@@H](NC(=O)c2ccc3ccc(C(F)(F)P(=O)(OCCSC(=O)CC(C)C)OCCSC(=O)CC(C)C)cc3c2)C1 [Compound 305, S,S′-(((((7-(((5S,8S, 10aR)-3-acetyl-8-((3S,4S)-3-hydroxy-4-(1H-1,2,3-triazol-1-yl)pyrrolidine-1-carbonyl)-6-oxodecahydro-pyrrolo[1,2-a][1,5]diazocin-5-yl)carbamoyl)naphthalen-2-yl)difluoro-methyl)phos-phoryl)bis(oxy))bis(ethane-2,1-diyl)) bis(3-methylbutane-thioate)] | 1000 to 3000 | > 3000 | – | –
4 | CNC(=O)[C@@H]1CC[C@@H]2CCN(C(=O)c3n[nH]c4ccc(C)cc34)C[C@H](NC(=O)c3ccc4ccc(C(F)(F)P(=O)(OCCSC(=O)CC(C)C)OCCSC(=O)CC(C)C)cc4c3)C(=O)N21 [Compound 329, S,S′-((((difluoro(7-(((5S,8S,10aR)-3-(5-methyl-1H-indazole-3-carbonyl)-8-(methylcarbamoyl)-6-oxodecahydropyrrolo[1,2-a][1,5]diazocin-5-yl)carbamoyl)naphthalen-2-yl)methyl)phosphoryl)bis(oxy))bis(ethane-2,1-diyl)) bis(3-methylbutanethioate)] | 1000 to 3000 | ≤ 100 | – | –
5 | CC(=O)N1CC[C@H]2CC[C@@H](C(=O)N3C[C@H](c4ccccc4)[C@@H](C#N)C3)N2C(=O)[C@@H](NC(=O)c2cc3cc(C(F)(F)P(=O)(OCOC(=O)OC(C)C)OCOC(=O)OC(C)C)ccc3s2)C1 (single isomer, unassigned) [Compound 285, ((((2-(((5S,8S, 10aR)-3-acetyl-8-((3R,4S or 3S,4R)-3-cyano-4-phenyl-pyrrolidine-1-carbonyl)-6-oxodecahydro-pyrrolo[1,2-a][1,5]diazocin-5-yl)carbamoyl)benzo[b]thiophen-5-yl)difluoro-methyl)phos-phoryl)bis(oxy)) bis(methylene) diisopropyl bis(carbonate)] | 100 to 1000 | ≤ 100 | – | –
6 | CCCC(=O)SCCOP(=O)(OCCSC(=O)CCC)C(F)(F)c1ccc2ccc(C(=O)N[C@H]3CCN(CC(F)F)C[C@H]4CC[C@@H](C(=O)N5CC(c6cc[nH]c(=O)c6)CC56CC6)N4C3=O)cc2c1 (stereo partly drawn) [Compound 335, S,S′-(((((7-(((5S,8S,10aR)-2-(2,2-difluoroethyl)-6-oxo-8-(6-(2-oxo-1,2-dihydropyridin-4-yl)-4-azaspiro[2.4]heptane-4-carbonyl)decahydropyrrolo [1,2-a][1,4]diazocin-5-yl)carbamoyl)naphthalen-2-yl)difluoromethyl)phosphoryl)bis(oxy))bis(ethane-2,1-diyl))dibutanethioate] | 1000 to 3000 | ≤ 100 | – | –
7 | CC(=O)N1CCC2CCC(C(=O)N3CC(c4ccccc4)CC34CC4)N2C(=O)C(NC(=O)c2ccc3ccc(C(F)(F)P(=O)(OCCSC(=O)CC(C)C)OCCSC(=O)CC(C)C)cc3c2)C1 [Compound 1, S,S′-(((((7-(((5S,8S,10aR)-3-acetyl-6-oxo-8-(6-phenyl-4-azaspiro[2.4]heptane-4-carbonyl)decahydropyrrolo[1,2-a][1,5]diazocin-5-yl)carbamoyl)naphthalen-2-yl)difluoromethyl)phosphoryl)bis(oxy))bis(ethane-2,1-diyl)) bis(3-methylbutanethioate)] | – | – | 100 to 1000 | > 3000
8 | CCCC(=O)SCCOP(=O)(OCCSC(=O)CCC)C(F)(F)c1ccc2sc(C(=O)N[C@H]3CN(C(C)=O)CC[C@H]4CC[C@@H](C(=O)N(C)c5ccccc5)N4C3=O)cc2c1 [Compound 280, S,S′-(((((2-(((5S,8S, 10aR)-3-acetyl-8-(methyl (phenyl)carbamoyl)-6-oxodecahydro-pyrrolo[1,2-a][1,5]diazocin-5-yl)carbamoyl)benzo[b]thiophen-5-yl)difluoro-methyl)phos-phoryl)bis (oxy))bis (ethane-2,1-diyl))di-butanethioate] | 1000 to 3000 | 100 to 1000 | – | –
9 | CCCC(=O)SCCOP(=O)(OCCSC(=O)CCC)C(F)(F)c1ccc2ccc(C(=O)N[C@H]3CN(CC(F)F)CC[C@H]4CC[C@@H](C(=O)N(C)C5CCN(S(C)(=O)=O)CC5)N4C3=O)cc2c1 [Compound 347, S,S′-(((((7-(((5S,8S,10aR)-3-(2,2-difluoroethyl)-8-(methyl(1-(methylsulfonyl)piperidin-4-yl)carbamoyl)-6-oxodeca hydropyrrolo[1,2-a][1,5]diazocin-5-yl)carbamoyl)naphthalen-2-yl)difluoromethyl)phosphoryl)bis(oxy))bis(ethane-2,1-diyl))dibutanethioate] | 100 to 1000 | 100 to 1000 | – | –
10 | CC(=O)N1CC[C@H]2CC[C@@H](C(=O)N3CCC[C@H]3Cc3ccccc3)N2C(=O)[C@@H](NC(=O)c2cc3cc(C(F)(F)P(=O)(OCOC(=O)C(C)(C)C)OCOC(=O)C(C)(C)C)ccc3s2)C1 [Compound 320, ((((2-(((5S,8S, 10aR)-3-acetyl-8-((S)-2-benzyl-pyrrolidine-1-carbonyl)-6-oxodecahydro-pyrrolo[1,2-a][1,5]diazocin-5-yl)carbamoyl)benzo[b]thiophen-5-yl)difluoro-methyl)phos-phoryl)bis(oxy)) bis(methylene) bis(2,2-dimethylpro-panoate)] | 100 to 1000 | ≤ 100 | – | –
11 | CC(=O)N1CC[C@H]2CC[C@@H](C(=O)N(C)c3ccccc3)N2C(=O)[C@@H](NC(=O)c2cc3cc(C(F)(F)P(=O)(OCOC(=O)C(C)(C)C)OCOC(=O)C(C)(C)C)ccc3[nH]2)C1 [Compound 300, ((((2-(((5S, 8S,10aR)-3-acetyl-8-(methyl (phenyl)carbamoyl)-6-oxodecahydro-pyrrolo[1,2-a][1,5]diazocin-5-yl)carbamoyl)-1H-indol-5-yl)difluoro-methyl)phos-phoryl)bis(oxy)) bis(methylene) bis(2,2-dimethylpro-panoate)] | 100 to 1000 | 100 to 1000 | – | –
12 | CC(C)(C)C(=O)OCOP(=O)(OCOC(=O)C(C)(C)C)C(F)(F)c1ccc2ccc(C(=O)NC3CN(CC(F)F)CCC4CCC(C(=O)N5CCC(c6ccccc6)C(C#N)C5)N4C3=O)cc2c1 [Compound 345, ((((7-(((5S,8S,10aR)-8-((rel-trans)-3-cyano-4-phenylpiperidine-1-carbonyl)-3-(2,2-difluoroethyl)-6-oxodecahydropyrrolo[1,2-a][1,5]diazocin-5-yl)carbamoyl)naphthalen-2-yl)difluoromethyl)phosphoryl)bis(oxy)) bis(methylene) bis(2,2-dimethylpropanoate)] | – | – | 100 to 1000 | 1000 to 3000
13 | CCCC(=O)SCCOP(=O)(OCOC(=O)OC(C)C)C(F)(F)c1ccc2ccc(C(=O)N[C@H]3CCN(CC(F)F)C[C@H]4CC[C@@H](C(=O)N5CC(c6cc[nH]c(=O)c6)CC56CC6)N4C3=O)cc2c1 (stereo partly drawn) [Compound 334, S-(2-((((7-(((5S,8S,10aR)-2-(2,2-difluoroethyl)-6-oxo-8-(6-(2-oxo-1,2-dihydropyridin-4-yl)-4-azaspiro[2.4]heptane-4-carbonyl)decahydropyrrolo[1,2-a][1,4]diazocin-5-yl)carbamoyl)naphthalen-2-yl)difluoromethyl) (((isopropoxycarbonyl)oxy)methoxy)phosphoryl)oxy)ethyl)butanethioate] | 100 to 1000 | ≤ 100 | – | –
14 | CC(=O)N1CC[C@H]2CC[C@@H](C(=O)N(C)c3ccc(C(C)(C)C)cc3)N2C(=O)[C@@H](NC(=O)c2cc3cc(C(F)(F)P(=O)(OCOC(=O)C(C)(C)C)OCOC(=O)C(C)(C)C)ccc3s2)C1 [Compound 319, ((((2-(((5S,8S, 10aR)-3-acetyl-8-((4-(tert-butyl)phenyl) (methyl)carbamoyl)-6-oxodecahydro-pyrrolo[1,2-a][1,5]diazocin-5-yl)carbamoyl)benzo[b]thiophen-5-yl)difluoro-methyl)phos-phoryl)bis(oxy)) bis(methylene) bis(2,2-dimethylpro-panoate)] | 100 to 1000 | ≤ 100 | – | –
15 | CC(=O)N1CC[C@H]2CC[C@@H](C(=O)N(C)c3ccccc3)N2C(=O)[C@@H](NC(=O)c2cc3cc(C(F)(F)P(=O)(N[C@H](C)C(=O)OC(C)C)Oc4ccccc4)ccc3s2)C1 (stereo partly drawn) [Compound 326, isopropyl (((2-(((5S,8S, 10aR)-3-acetyl-8-(methyl (phenyl)carbamoyl)-6-oxodecahydro-pyrrolo[1,2-a][1,5]diazocin-5-yl)carbamoyl)benzo[b]thiophen-5-yl)difluoro-methyl) (phenoxy)phosphoryl)-D-alaninate] | > 3000 | > 3000 | – | –
